In general, IC50 refers to the point on the concentration scale where inhibition reaches its midpoint. Low readings indicate inhibition by little substance, high ones a need for much substance.

One assay deals with T1, rat 5-HT2 receptor (Rattus norvegicus, UniProt P14842).
T1 construct: from tissue; host or cells: brain tissue of male Sprague-Dawley rats
It is filed as binding. As to conditions: brain tissue of male Sprague-Dawley rats; performed in triplicate. The text has this: This is quite surprising in light of the N-substituted ergolines having a much greater affinity for the 5-HT2 receptors in rats compared to the corresponding N-unsubstituted ergolines.

Assay [1] addresses T2, cloned human 5-HT2 receptor (Homo sapiens, UniProt P28223).
T2 construct: expressed in transfected cells
It is filed as binding. Conditions: cells containing cloned human 5-HT2 receptor; performed in triplicate.

T1 sequence (P14842 whole entry): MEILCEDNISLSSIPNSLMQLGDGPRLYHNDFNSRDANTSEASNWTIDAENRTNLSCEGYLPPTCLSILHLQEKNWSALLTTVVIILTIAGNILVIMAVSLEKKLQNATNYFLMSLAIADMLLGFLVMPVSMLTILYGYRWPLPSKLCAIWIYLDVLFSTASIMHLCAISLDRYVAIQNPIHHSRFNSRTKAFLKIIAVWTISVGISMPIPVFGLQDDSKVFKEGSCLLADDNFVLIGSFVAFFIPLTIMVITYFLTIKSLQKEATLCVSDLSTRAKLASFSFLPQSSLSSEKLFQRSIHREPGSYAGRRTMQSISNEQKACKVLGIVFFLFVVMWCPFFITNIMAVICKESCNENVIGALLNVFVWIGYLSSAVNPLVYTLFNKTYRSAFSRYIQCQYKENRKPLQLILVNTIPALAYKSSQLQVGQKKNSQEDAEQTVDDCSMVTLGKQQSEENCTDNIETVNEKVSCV
T2 sequence (P28223 whole entry): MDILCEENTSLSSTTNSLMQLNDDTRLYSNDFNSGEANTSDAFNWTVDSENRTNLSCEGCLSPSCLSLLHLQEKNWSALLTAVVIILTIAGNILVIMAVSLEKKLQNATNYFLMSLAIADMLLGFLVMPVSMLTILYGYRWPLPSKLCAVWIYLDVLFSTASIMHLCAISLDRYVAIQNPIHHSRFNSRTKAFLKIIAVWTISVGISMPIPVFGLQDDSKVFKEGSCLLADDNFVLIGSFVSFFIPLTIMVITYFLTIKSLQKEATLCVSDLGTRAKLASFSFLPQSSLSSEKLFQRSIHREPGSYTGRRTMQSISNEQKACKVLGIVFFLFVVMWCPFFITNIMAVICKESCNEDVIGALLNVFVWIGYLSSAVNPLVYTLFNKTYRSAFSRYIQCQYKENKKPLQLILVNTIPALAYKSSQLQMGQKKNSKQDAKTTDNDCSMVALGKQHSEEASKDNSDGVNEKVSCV

Take `CC(C)n1cc2c3c(cccc31)C1CC(C(=O)NC3CC3O)CN(C)C1C2` (centres unmarked) [drawing 3 NH 2-hydroxycyclopropyl]: the values for the concentration for half-maximal inhibition (IC50) (on rat 5-HT2 receptor; in assay [1]) were 5.8 nM and 27.7 nM, respectively.

For the origin of these results see US5674875A, “Method of blocking human 5-hydroxytryptamine-2 receptors” (priority 1995, dated 1997).
